Patent US20220204476A1, “RNA VIRUS INHIBITOR COMPOUNDS AND USES THEREOF” (The Governors of the University of Alberta, priority 2020, published 2022)
pEC50, pIC50: −log10 of the molar value. Read-outs that look alike come from different tables or passages of the source.

Key:
[1] = system: SARS-CoV-2; experiment: SARS-CoV-2 in vitro plaque reduction assay in Vero E6 cells; format: cell-based; details: plaques counted after 48 h, >5 μM = did not reduce plaque numbers by half at 10 μM, read-out: SARS-CoV-2 Antiviral EC50
[2] = biological target: SARS-CoV-2 3CLP (Severe acute respiratory syndrome coronavirus 2, UniProt P0DTD1); experiment: SARS-CoV-2 3CLP inhibition, FRET-based cleavage assay; format: biochemical; details: 100 μM substrate, 37° C., 10 min incubation, pH 7.8
[3] = Severe acute respiratory syndrome coronavirus 2, Vero C1008, MOI 0.0001 pfu/cell
[4] = 80 nM SARS-CoV-2 3CLP, read-out: 3CL Protease IC50
[5] = 3CL Protease IC50, 80 nM SARS-CoV-2 3CLP

Structure (SMILES): CC(C)C[C@H](NCC1Cc2ccccc2O1)C(=O)N[C@H](C#N)C[C@@H]1CCCNC1=O (single isomer, unassigned) [Compound 96]
- pEC50 [1, 3]: < 5.30
- pIC50 [2, 4]: 4.34

Structure (SMILES): CC(C)C[C@H](NCC1Cc2ccccc2O1)C(=O)N[C@H](C#N)C[C@@H]1CCCNC1=O (single isomer, unassigned) [Compound 97]
- pEC50 ([1]; MOI 0.0001 pfu/cell): < 5.30
- pIC50 [2, 4]: < 3.30

Structure (SMILES): COc1cccc2[nH]c(C(=O)N[C@@H](CC(C)C)C(=O)N[C@@H](C[C@@H]3CCCNC3=O)C(=O)COC(=O)C(C)(C)C)cc12 [Compound 1, (3S)-3-{[N-(4-methoxy-1H-indole-2-carbonyl)-L-leucyl]amino}-2-oxo-4-[(3S)-2-oxopiperidin-3-yl]butyl 2,2-dimethylpropanoate]
- pEC50 [1, 3]: < 5.30
- pIC50 [2, 4]: 7.19

Structure (SMILES): COc1cccc2[nH]c(C(=O)N[C@@H](CC(C)C)C(=O)N[C@@H](C[C@@H]3CCCNC3=O)C(=O)COC(=O)c3ccccc3)cc12 [Compound 2, (3S)-3-{[N-(4-methoxy-1H-indole-2-carbonyl)-L-leucyl]amino}-2-oxo-4-[(3S)-2-oxopiperidin-3-yl]butyl benzoate]
- pEC50 [1, 3]: < 5.30
- pIC50 [2, 4]: 7.19

Structure (SMILES): COc1cccc2[nH]c(C(=O)N[C@@H](CC(C)C)C(=O)N[C@@H](C[C@@H]3CCCNC3=O)C(=O)COC(=O)c3ccccn3)cc12 [Compound 3, (3S)-3-{[N-(4-methoxy-1H-indole-2-carbonyl)-L-leucyl]amino}-2-oxo-4-[(3S)-2-oxopiperidin-3-yl]butyl pyridine-2-carboxylate]
- pEC50 [1, 3]: < 5.30
- pIC50 [2, 5]: 6.89

Structure (SMILES): COc1cccc2[nH]c(C(=O)N[C@@H](CC(C)C)C(=O)N[C@@H](C[C@@H]3CCCNC3=O)C(=O)COC(=O)c3cccnc3)cc12 [Compound 4, (3S)-3-{[N-(4-methoxy-1H-indole-2-carbonyl)-L-leucyl]amino}-2-oxo-4-[(3S)-2-oxopiperidin-3-yl]butyl pyridine-3-carboxylate]
- pEC50 [1, 3]: < 5.30
- pIC50 [2, 4]: 8.40

Structure (SMILES): COc1cccc2[nH]c(C(=O)N[C@@H](CC(C)C)C(=O)N[C@@H](C[C@@H]3CCCNC3=O)C(=O)COC(=O)c3c(F)c(F)c(F)c(F)c3F)cc12 [Compound 7, (3S)-3-{[N-(4-methoxy-1H-indole-2-carbonyl)-L-leucyl]amino}-2-oxo-4-[(3S)-2-oxopiperidin-3-yl]butyl pentafluorobenzoate]
- pEC50 [1, 3]: < 5.30

Structure (SMILES): COc1cccc2[nH]c(C(=O)N[C@@H](CC(C)C)C(=O)N[C@@H](C[C@@H]3CCCNC3=O)C(=O)COC(=O)c3ccncc3)cc12 [Compound 8, (3S)-3-{[N-(4-methoxy-1H-indole-2-carbonyl)-L-leucyl]amino}-2-oxo-4-[(3S)-2-oxopiperidin-3-yl]butyl pyridine-4-carboxylate]
- pEC50 [1, 3]: < 5.30

Structure (SMILES): COc1cccc2[nH]c(C(=O)N[C@@H](CC(C)C)C(=O)N[C@@H](C[C@@H]3CCCNC3=O)C(=O)COC(=O)C3(C)COC(C)(C)OC3)cc12 [Compound 9, (3S)-3-{[N-(4-methoxy-1H-indole-2-carbonyl)-L-leucyl]amino}-2-oxo-4-[(3S)-2-oxopiperidin-3-yl]butyl 2,2,5-trimethyl-1,3-dioxane-5-carboxylate]
- pEC50 [1, 3]: < 5.30
- pIC50 [2, 4]: 7.26

Structure (SMILES): COc1cccc2[nH]c(C(=O)N[C@@H](CC(C)C)C(=O)N[C@@H](C[C@@H]3CCCNC3=O)C(=O)COC(=O)c3cccnc3C(F)(F)F)cc12 [Compound 10, (3S)-3-{[N-(4-methoxy-1H-indole-2-carbonyl)-L-leucyl]amino}-2-oxo-4-[(3S)-2-oxopiperidin-3-yl]butyl 2-(trifluoromethyl)pyridine-3-carboxylate]
- pEC50 [1, 3]: < 5.30
- pIC50 [2, 4]: 7.28

Structure (SMILES): COc1cccc2[nH]c(C(=O)N[C@@H](CC(C)C)C(=O)N[C@@H](C[C@@H]3CCCNC3=O)C(=O)COC(=O)c3ccc(C(C)(C)C)nc3)cc12 [Compound 11, (3S)-3-{[N-(4-methoxy-1H-indole-2-carbonyl)-L-leucyl]amino}-2-oxo-4-[(3S)-2-oxopiperidin-3-yl]butyl 6-tert-butylpyridine-3-carboxylate]
- pEC50 [1, 3]: < 5.30
- pIC50 [2, 4]: 7.72

Structure (SMILES): COc1cccc2[nH]c(C(=O)N[C@@H](CC(C)C)C(=O)N[C@@H](C[C@@H]3CCCNC3=O)C(=O)COC(=O)C3(C#N)CC3)cc12 [Compound 12, (3S)-3-{[N-(4-methoxy-1H-indole-2-carbonyl)-L-leucyl]amino}-2-oxo-4-[(3S)-2-oxopiperidin-3-yl]butyl 1-cyanocyclopropane-1-carboxylate]
- pEC50 [1, 3]: < 5.30
- pIC50 [2, 4]: 7.80

Structure (SMILES): COc1cccc2[nH]c(C(=O)N[C@@H](CC(C)C)C(=O)N[C@@H](C[C@@H]3CCCNC3=O)C(=O)COC(=O)C(C)(C)C#N)cc12 [Compound 14, (3S)-3-{[N-(4-methoxy-1H-indole-2-carbonyl)-L-leucyl]amino}-2-oxo-4-[(3S)-2-oxopiperidin-3-yl]butyl 2-cyano-2-methylpropanoate]
- pEC50 [1, 3]: < 5.30
- pIC50 [2, 4]: 7.66

Structure (SMILES): COc1cccc2[nH]c(C(=O)N[C@@H](CC(C)C)C(=O)N[C@@H](C[C@@H]3CCCNC3=O)C(=O)COC(=O)C3(C(F)(F)F)CC3)cc12 [Compound 15, (3S)-3-{[N-(4-methoxy-1H-indole-2-carbonyl)-L-leucyl]amino}-2-oxo-4-[(3S)-2-oxopiperidin-3-yl]butyl 1-(trifluoromethyl)cyclopropane-1-carboxylate]
- pEC50 [1, 3]: < 5.30
- pIC50 [2, 4]: 7.39

Structure (SMILES): COc1cccc2[nH]c(C(=O)N[C@@H](CC(C)C)C(=O)N[C@@H](C[C@@H]3CCCNC3=O)C(=O)COC(=O)C3(C)OCCCO3)cc12 [Compound 16, (3S)-3-{[N-(4-methoxy-1H-indole-2-carbonyl)-L-leucyl]amino}-2-oxo-4-[(3S)-2-oxopiperidin-3-yl]butyl 2-methyl-1,3-dioxane-2-carboxylate]
- pEC50 [1, 3]: < 5.30
- pIC50 [2, 5]: 7.89

Structure (SMILES): CC(C)C[C@H](NC(=O)C1CCCC1)C(=O)N[C@@H](C[C@@H]1CCCNC1=O)C(=O)COC(=O)c1cccnc1 [Compound 17, (3S)-3-{[N-(cyclopentanecarbonyl)-L-leucyl]amino}-2-oxo-4-[(3S)-2-oxopiperidin-3-yl]butyl pyridine-3-carboxylate]
- pEC50 [1, 3]: < 5.30
- pIC50 [2, 4]: 5.30

Structure (SMILES): COc1cccc2[nH]c(C(=O)N[C@@H](CC(C)C)C(=O)N[C@@H](C[C@@H]3CCCNC3=O)C(=O)COC(=O)C3(C#N)CCCC3)cc12 [Compound 19, (3S)-3-{[N-(4-methoxy-1H-indole-2-carbonyl)-L-leucyl]amino}-2-oxo-4-[(3S)-2-oxopiperidin-3-yl]butyl 1-cyanocyclopentane-1-carboxylate]
- pEC50 [1, 3]: < 5.30
- pIC50 [2, 4]: 7.59

Structure (SMILES): COc1cccc2[nH]c(C(=O)N[C@@H](CC(C)C)C(=O)N[C@@H](C[C@@H]3CCCNC3=O)C(=O)COC(=O)C3(C(F)(F)F)CCCCC3)cc12 [Compound 20, (3S)-3-{[N-(4-methoxy-1H-indole-2-carbonyl)-L-leucyl]amino}-2-oxo-4-[(3S)-2-oxopiperidin-3-yl]butyl 1-(trifluoromethyl)cyclohexane-1-carboxylate]
- pEC50 [1, 3]: 6.15
- pIC50 [2, 4]: 7.07

Structure (SMILES): COc1cccc2[nH]c(C(=O)N[C@@H](CC(C)C)C(=O)N[C@@H](C[C@@H]3CCCNC3=O)C(=O)COC(=O)c3sc(C)nc3C(F)(F)F)cc12 [Compound 21, (3S)-3-{[N-(4-methoxy-1H-indole-2-carbonyl)-L-leucyl]amino}-2-oxo-4-[(3S)-2-oxopiperidin-3-yl]butyl 2-methyl-4-(trifluoromethyl)-1,3-thiazole-5-carboxylate]
- pEC50 [1, 3]: < 5.30
- pIC50 [2, 4]: 7.74

Structure (SMILES): COc1cccc2[nH]c(C(=O)N[C@@H](CC(C)C)C(=O)N[C@@H](C[C@@H]3CCCNC3=O)C(=O)COC(=O)c3cnc(C)cc3C)cc12 [Compound 22, (3S)-3-{[N-(4-methoxy-1H-indole-2-carbonyl)-L-leucyl]amino}-2-oxo-4-[(3S)-2-oxopiperidin-3-yl]butyl 4,6-dimethylpyridine-3-carboxylate]
- pEC50 [1, 3]: < 5.30
- pIC50 [2, 4]: 7.77

Structure (SMILES): COc1cccc2[nH]c(C(=O)N[C@@H](CC(C)C)C(=O)N[C@@H](C[C@@H]3CCCNC3=O)C(=O)COC(=O)c3c(C)cc(C)nc3C)cc12 [Compound 23, (3S)-3-{[N-(4-methoxy-1H-indole-2-carbonyl)-L-leucyl]amino}-2-oxo-4-[(3S)-2-oxopiperidin-3-yl]butyl 2,4,6-trimethylpyridine-3-carboxylate]
- pIC50 [2, 5]: 7.44

Structure (SMILES): COc1cccc2[nH]c(C(=O)N[C@@H](CC(C)C)C(=O)N[C@H](C#N)C[C@@H]3CCNC3=O)cc12 [Compound 24, N-[(2S)-1-({(1S)-1-cyano-2-[(3S)-2-oxopyrrolidin-3-yl]ethyl}amino)-4-methyl-1-oxopentan-2-yl]-4-methoxy-1H-indole-2-carboxamide]
- pEC50 [1, 3]: < 5.30

Structure (SMILES): COc1cccc2[nH]c(C(=O)N[C@@H](CC(C)C)C(=O)N[C@@H](C[C@@H]3CCNC3=O)C(=O)COC(=O)c3c(C(F)(F)F)cc(C)nc3C)cc12 [Compound 26, (3S)-3-{[N-(4-methoxy-1H-indole-2-carbonyl)-L-leucyl]amino}-2-oxo-4-[(3S)-2-oxopyrrolidin-3-yl]butyl 2,6-dimethyl-4-(trifluoromethyl)pyridine-3-carboxylate]
- pIC50 [2, 4]: 7.77

Structure (SMILES): COc1cccc2[nH]c(C(=O)N[C@@H](CC(C)C)C(=O)N[C@@H](C[C@@H]3CCCNC3=O)C(=O)COC(=O)c3c(C)nc(C)nc3C)cc12 [Compound 72, 3-{[N-(4-methoxy-1H-indole-2-carbonyl)leucyl]amino}-2-oxo-4-(2-oxopiperidin-3-yl)butyl 2,4,6-trimethylpyrimidine-5-carboxylate]
- pIC50 [2, 4]: 7.66

Structure (SMILES): [2H]C1([2H])CC[C@@H](C[C@@H](C#N)NC(=O)[C@H](CC(C)(C)C)NC(=O)c2cc3c(OC)cccc3[nH]2)C(=O)N1 [Compound 104, N-[(2S)-1-({(1S)-1-cyano-2-[(3S)-2-oxo(6,6-d2)piperidin-3-yl]ethyl}amino)-4,4-dimethyl-1-oxopentan-2-yl]-4-methoxy-1H-indole-2-carboxamide]
- pEC50 [1, 3]: < 5.30
